For 20 molecules, IC50 results are on record in ChEMBL document CHEMBL4616582, “Green recipes to quinoline: A review” (Eur J Med Chem, 2019).

What all share (type): functional, organism-based
For experiment [1], the system named is Leishmania donovani. The experiment can be described thus: Antileishmanial activity against Leishmania donovani promastigotes.
Experiment [2] concerns Leishmania donovani. The experiment can be described thus: Antileishmanial activity against Leishmania donovani amastigotes.
The test system of another experiment is Plasmodium falciparum. Briefly: Antimalarial activity against chloroquine and quinine sensitive Plasmodium falciparum.

In brackets after ≈: the same amount, converted by molar mass.

Broadly, the IC50 is the midpoint of a concentration-inhibition curve. A lower IC50 goes with greater potency. For the molecule `CSC(=S)/C=C(\O)c1ccc(C)cc1`, the IC50 in the experiment with Leishmania donovani [1] and with Leishmania donovani [2] was 1.34 to 3.26 µg/mL (≈ 5.97 to 14.5 µM) in each case. Regarding `CSC(=S)/C=C(\O)c1ccc(C(F)(F)F)cc1`, the half-maximal inhibitory concentration (IC50) in the experiment with Leishmania donovani [1] and in the experiment on Leishmania donovani [2] was 1.34 to 3.26 µg/mL (≈ 4.81 to 11.7 µM) each time. With `CSC(=S)/C=C(\O)c1cccs1`, the IC50 with Leishmania donovani [1] and in the experiment with Leishmania donovani [2] was 1.34 to 3.26 µg/mL (≈ 6.19 to 15.1 µM) each time. Turning to `CSC(=S)/C=C(\O)c1cccc(C)c1`, the IC50 in the experiment on Leishmania donovani [1] and in the experiment with Leishmania donovani [2] was 1.34 to 3.26 µg/mL (≈ 5.97 to 14.5 µM) in each case. For `CSC(=S)/C=C(\O)c1ccco1`, the IC50 with Leishmania donovani [1] and with Leishmania donovani [2] was 1.34 to 3.26 µg/mL (≈ 6.69 to 16.3 µM) in each case. Turning to `Cc1nn(-c2ccccc2)c(Oc2cccc(F)c2)c1C1C(C#N)=C(N)N(Nc2ccc(Br)cc2)C2=C1C(=O)CC(C)(C)C2` (stereo unspecified), the IC50 in the experiment on Plasmodium falciparum lay within 0.042 to 0.09 µg/mL (≈ 0.0643 to 0.138 µM). With `CSC(=S)/C=C(\O)c1ccccc1`, the IC50 with Leishmania donovani [1] and in the experiment with Leishmania donovani [2] was 1.34 to 3.26 µg/mL (≈ 6.37 to 15.5 µM) in each case. The molecule `Cc1nn(-c2ccccc2)c(Oc2cccc(C(F)(F)F)c2)c1C1C(C#N)=C(N)N(Nc2ccccc2)C2=C1C(=O)CC(C)(C)C2` (stereo unspecified) had an IC50 in the experiment on Plasmodium falciparum of 0.042 to 0.09 µg/mL (≈ 0.0672 to 0.144 µM). Still for that read-out and setting: for `COc1ccc(NN2C(N)=C(C#N)C(c3c(C)nn(-c4ccccc4)c3Oc3cccc(C(F)(F)F)c3)C3=C2CC(C)(C)CC3=O)cc1` (stereo unspecified) the value was 0.042 to 0.09 µg/mL (≈ 0.0642 to 0.137 µM). The molecule `Cc1nn(-c2ccccc2)c(Oc2ccc(F)cc2)c1C1C(C#N)=C(N)N(Nc2ccc(F)cc2)C2=C1C(=O)CC(C)(C)C2` (stereo unspecified) showed an IC50 in the experiment on Plasmodium falciparum of 0.042 to 0.09 µg/mL (≈ 0.0709 to 0.152 µM).

In the case of `Nc1ccccc1C(=O)c1ccccc1`, the half-inhibitory concentration (IC50) in the experiment with Leishmania donovani [1] and with Leishmania donovani [2] was 1.34 to 3.26 µg/mL (≈ 6.79 to 16.5 µM) each time.

As to `Nc1ccc(Cl)cc1C(=O)c1ccccc1`, the 50% inhibitory concentration (IC50) with Leishmania donovani [1] and in the experiment on Leishmania donovani [2] was 1.34 to 3.26 µg/mL (≈ 5.78 to 14.1 µM) throughout. As to `COc1ccc(/C(O)=C/C(=S)SC)cc1`, the 50% inhibitory concentration (IC50) in the experiment on Leishmania donovani [1] and in the experiment on Leishmania donovani [2] was 1.34 to 3.26 µg/mL (≈ 5.58 to 13.6 µM) each time. In turn, `Cc1nn(-c2ccccc2)c(Oc2ccccc2F)c1C1C(C#N)=C(N)N(Nc2ccccc2)C2=C1C(=O)CC(C)(C)C2` (stereo unspecified) came in with an IC50 in the experiment with Plasmodium falciparum of 0.042 to 0.09 µg/mL (≈ 0.0731 to 0.157 µM). The same measure, in the same setting: for `Cc1nn(-c2ccccc2)c(Oc2cccc(F)c2)c1C1C(C#N)=C(N)N(Nc2ccc(F)cc2)C2=C1C(=O)CC(C)(C)C2` (stereo unspecified) the value was 0.042 to 0.09 µg/mL (≈ 0.0709 to 0.152 µM).

Turning to `Cc1nn(-c2ccccc2)c(Oc2ccccc2F)c1C1C(C#N)=C(N)N(Nc2ccc(F)cc2)C2=C1C(=O)CC(C)(C)C2` (stereo unspecified), in the experiment on Plasmodium falciparum, the IC50 fell in the range of 0.042 to 0.09 µg/mL (≈ 0.0709 to 0.152 µM). With `CCCCCCCCCCCCCCCCOP(=O)([O-])OCC[N+](C)(C)C` [MILTEFOSINE], the half-maximal inhibitory concentration (IC50) turned out to be 4.54 µg/mL (≈ 11.1 µM) in the experiment with Leishmania donovani [1] and 8.2 µg/mL (≈ 20.1 µM) in the experiment with Leishmania donovani [2]. In the experiment with Plasmodium falciparum, `Cc1nn(-c2ccccc2)c(Oc2cccc(C(F)(F)F)c2)c1C1C(C#N)=C(N)N(Nc2ccc(F)cc2)C2=C1C(=O)CC(C)(C)C2` (stereo unspecified) displayed a 50% inhibitory concentration (IC50) of 0.042 to 0.09 µg/mL (≈ 0.0654 to 0.14 µM). As to `CSC(=S)/C=C(\O)c1ccccc1Cl`, the IC50 in the experiment on Leishmania donovani [1] and in the experiment on Leishmania donovani [2] was 1.34 to 3.26 µg/mL (≈ 5.47 to 13.3 µM) throughout. In the experiment on Plasmodium falciparum, `C=C[C@H]1CN2CC[C@H]1C[C@H]2[C@H](O)c1ccnc2ccc(OC)cc12` [QUININE] came in with an IC50 of 0.268 µg/mL (≈ 0.826 µM).
